Here are results for 14 molecules from patent publication US5430062A, “Stilbene derivatives as anticancer agents” (priority 1993, dated 1995).

Where a name gives a salt, the structure may show the parent alone. Read-outs that look alike come from different tables or passages of the source. Where only a bound is given, the exact number is not on record here.

For data set [1], the system named is tubulin. Nature of the data set: Inhibition of tubulin polymerization (turbidimetry). It counts as biochemical, bovine.
Another data set relates to M14 melanoma. Description: Cytotoxicity, M14.
The next data set concerns SF-295 CNS cancer. Description: Cytotoxicity, SF-295. As to conditions: read-out: cytotoxicity GI50, SF-295, 50% growth inhibition, average of two determinations, 8640 min.
For another data set, the system named is CAKI-1 renal cancer. Nature of the data set: Cytotoxicity, CAKI-1.
Data set [2] concerns DMS 273 small cell lung cancer. Nature of the data set: Cytotoxicity, DMS 273. The conditions noted are these: read-out: cytotoxicity GI50, DMS 273, 50% growth inhibition, average of two determinations, 8640 min.
For a further data set, the system named is OVCAR-3 ovarian cancer. Description: Cytotoxicity, OVCAR-3.
Another data set has as its system COLO 205 colon cancer. Nature of the data set: Cytotoxicity, COLO 205. As to conditions: read-out: cytotoxicity GI50, COLO 205, 50% growth inhibition, average of two determinations, 8640 min.
A further data set relates to HL-60 (TB) leukemia. Nature of the data set: Cytotoxicity, HL-60(TB) leukemia. As to conditions: read-out: cytotoxicity GI50, HL-60(TB), 50% growth inhibition, average of two determinations, 8640 min.
The test system of data set [3] is tubulin. Nature of the data set: Inhibition of [3H]colchicine binding to tubulin (DEAE-filter). Details: species or system bovine.
The test system of data set [4] is tubulin. The conditions noted are these: cited from earlier work.
In the next data set the test system is MLM melanoma. Nature of the data set: MTT cytotoxicity assay, MLM. As to conditions: […], read-out: Cytotoxicity ED50, MLM. (Tetrazolium assays rely on reduction of a dye to a coloured formazan, in cell work by metabolically active cells.)
Another data set relates to A-549 lung carcinoma. Description: MTT cytotoxicity assay, A-549. As to conditions: Homo sapiens, A549, […], read-out: Cytotoxicity ED50, A-549.
A further data set has as its system MCF-7 breast carcinoma. Nature of the data set: MTT cytotoxicity assay, MCF-7. The conditions noted are these: Homo sapiens, MCF7, […], read-out: Cytotoxicity ED50, MCF-7.
Data set [5] relates to HT-29 colon adenocarcinoma. Nature of the data set: MTT cytotoxicity assay, HT-29. The conditions noted are these: Homo sapiens, HT-29, […], read-out: Cytotoxicity ED50, HT-29.
Data set [6] is described as follows: Stability in DMSO solution at room temperature (NMR). It counts as physicochemical. As to conditions: protected from light, read-out: formation of the cis isomer (1a). The protocol:
The cytotoxic compounds gave reproducible results in the tubulin polymerization assay with the exception of the trans stilbenes 1b and 6n. […] The cytotoxic properties of these two agents may similarly result from chemical changes in solution. […] The ratio of 6n:5n was 1:1 after 24 hours of the dissolution of pure 6n in DMSO at room temperature.

[7] abbreviates: Table X, different glutamate preparation (1M monosodium glutamate and GTP), read-out: inhibn of tubulin polymn IC50 (±SD).
The mark [8] stands for this setting: read-out: cytotoxicity GI50, M14, 50% growth inhibition, average of two determinations, 8640 min.
Setting [9] is: read-out: cytotoxicity GI50, CAKI-1; 50% growth inhibition; average of two determinations; 8640 min.
The mark [10] stands for this setting: read-out: cytotoxicity GI50, OVCAR-3, 50% growth inhibition, average of two determinations, 8640 min.
The mark [11] stands for this setting: benzylanilines, Table X series, read-out: tubulin polymerization IC50.
[12] abbreviates: read-out: cytotoxicity GI50, M14; 50% growth inhibition; average of two determinations; 8640 min.
Where [13] appears, read: read-out: cytotoxicity GI50, OVCAR-3; 50% growth inhibition; average of two determinations; 8640 min.
[14] abbreviates: read-out: cytotoxicity GI50, CAKI-1, 50% growth inhibition, average of two determinations, 8640 min.
Setting [15] is: Table X, different glutamate preparation (1M monosodium glutamate and GTP), Hydrochloride, read-out: inhibn of tubulin polymn IC50 (±SD).
Setting [16] is: read-out: cytotoxicity GI50, M14, 50% growth inhibition, average of two determinations, 8640 min, Hydrochloride.
[17] abbreviates: read-out: cytotoxicity GI50, OVCAR-3, 50% growth inhibition, average of two determinations, 8640 min, Hydrochloride.
The mark [18] stands for this setting: read-out: cytotoxicity GI50, CAKI-1, 50% growth inhibition, average of two determinations, 8640 min, Hydrochloride.

A word on the GI50: it is the concentration that inhibits growth by half. Consider `CCOc1ccc(NCc2cc(OC)c(OC)c(OC)c2)cc1` [109d, 4-Ethoxy-N-(3,4,5-trimethoxybenzyl)aniline], for which, in the data set with tubulin [1] (setting [7]), the IC50 was 12000 nM. Further, the GI50 in the data set on M14 melanoma (setting [8]) was 403 nM; in the data set with SF-295 CNS cancer it was 274 nM; with CAKI-1 renal cancer (setting [9]), 2040 nM; in data set [2], 296 nM; in the data set on OVCAR-3 ovarian cancer (setting [10]), 340 nM; in the data set with COLO 205 colon cancer it was 432 nM. Further, the GI50 with HL-60 (TB) leukemia was found to be 296 nM.

Take `COc1cc(CNc2ccc(C)cc2)cc(OC)c1OC` [109a, 4-Methyl-N-(3,4,5-trimethoxybenzyl)aniline]: the IC50 in the data set on tubulin [1] (setting [7]) and in the data set with tubulin [1] (setting [11]) was 6000 nM in each case. For the same molecule, the GI50 in the data set on M14 melanoma (setting [8]) is 150 nM; in the data set with SF-295 CNS cancer, 163 nM; in [2], 92.6 nM; with COLO 205 colon cancer, 152 nM; in the data set on HL-60 (TB) leukemia it was 122 nM.

`COc1cc(C=Nc2ccc(C(C)C)cc2)cc(OC)c1OC` [108f, 4-Isopropyl-N-(3,4,5-trimethoxybenzylidene)aniline]: in the data set on tubulin [1] (setting [7]), the IC50 was more than 40000 nM. Moreover, the GI50 was more than 100000 nM in the data set on M14 melanoma (setting [12]); more than 100000 nM in the data set with SF-295 CNS cancer; more than 100000 nM with CAKI-1 renal cancer (setting [9]); 52500 nM in data set [2]; more than 100000 nM in the data set with OVCAR-3 ovarian cancer (setting [13]); more than 100000 nM in the data set with COLO 205 colon cancer. Moreover, the concentration for 50% growth inhibition (GI50) with HL-60 (TB) leukemia is more than 100000 nM.

On to `CCOc1ccc(N=Cc2cc(OC)c(OC)c(OC)c2)cc1` [108d, 4-Ethoxy-N-(3,4,5-trimethoxybenzylidene)aniline], for which, in the data set on tubulin [1] (setting [7]), the IC50 is more than 40000 nM. In addition, the 50% growth inhibitory concentration (GI50) (in the data set on M14 melanoma (setting [12]); with SF-295 CNS cancer; in the data set with CAKI-1 renal cancer (setting [9]); in [2]; in the data set on OVCAR-3 ovarian cancer (setting [13]); in the data set on HL-60 (TB) leukemia) was more than 100000 nM each time.

As to `COc1cc(CNc2ccc(SC)cc2)cc(OC)c1OC` [109e, 4-Methylthio-N-(3,4,5-trimethoxybenzyl)aniline], in the data set on tubulin [1] (setting [7]), the IC50 is more than 40000 nM. In addition, the 50% growth inhibitory concentration (GI50) with M14 melanoma (setting [8]) is 5260 nM; in the data set with SF-295 CNS cancer it was 7280 nM; in the data set with CAKI-1 renal cancer (setting [14]) it was 32000 nM; in data set [2] it was 3090 nM; in the data set with OVCAR-3 ovarian cancer (setting [10]), 5930 nM; in the data set on COLO 205 colon cancer, 3880 nM. Moreover, the GI50 in the data set with HL-60 (TB) leukemia is 3700 nM.

Turning to `CCc1ccc(NCc2cc(OC)c(OC)c(OC)c2)cc1` [109b, 4-Ethyl-N-(3,4,5-trimethoxybenzyl)aniline], the IC50 in the data set with tubulin [1] (setting [7]) and with tubulin [1] (setting [11]) was 3000 nM in each case. Besides, the GI50 with M14 melanoma (setting [8]) was 315 nM; with SF-295 CNS cancer, 266 nM; in the data set with CAKI-1 renal cancer (setting [9]), 354 nM; in data set [2] it was 135 nM; in the data set with OVCAR-3 ovarian cancer (setting [10]), 283 nM; in the data set with COLO 205 colon cancer, 344 nM. Moreover, in the data set on HL-60 (TB) leukemia, the 50% growth inhibitory concentration (GI50) turned out to be 168 nM.

Turning to `CCCc1ccc(N=Cc2cc(OC)c(OC)c(OC)c2)cc1` [108g, 4-n-Propyl-N-(3,4,5-trimethoxybenzylidene)aniline], the IC50 in the data set on tubulin [1] (setting [7]) is more than 40000 nM. Also, the GI50 (in the data set with M14 melanoma (setting [12]); with SF-295 CNS cancer; with CAKI-1 renal cancer (setting [9]); in data set [2]; with OVCAR-3 ovarian cancer (setting [13]); in the data set on COLO 205 colon cancer) was more than 100000 nM in each case. For the same molecule, the GI50 in the data set with HL-60 (TB) leukemia is 22600 nM.

As for `COc1ccc(/C=C\c2cc(OC)c(OC)c(OC)c2)cc1O` [compound 1a, reference compound], the “inhibition of colchicine binding (in words)” value in the data set with tubulin [3] is recorded as “nearly total inhibition of colchicine binding”. For the same molecule, the “competitive inhibition of colchicine binding” value in the data set with tubulin [4] is recorded as “competitively inhibit the binding of radiolabeled colchicine to tubulin”. For the same molecule, the IC50 with MLM melanoma came out at 0.014 nM; with A-549 lung carcinoma, 0.0012 nM; in the data set with MCF-7 breast carcinoma, 0.0038 nM; in data set [5], 0.012 nM.

As to `CCc1ccc(NCc2cc(OC)c(OC)c(OC)c2)cc1` [110b, 4-Ethyl-N-(3,4,5-trimethoxybenzyl)aniline Hydrochloride], the IC50 was found to be 7200 nM with tubulin [1] (setting [15]) and 7200 nM in the data set with tubulin [1] (benzylanilines, Table X series, Hydrochloride, read-out: tubulin polymerization IC50). In addition, the concentration for 50% growth inhibition (GI50) in the data set with M14 melanoma (setting [16]) stood at 437 nM; in the data set on SF-295 CNS cancer (Hydrochloride) it was 339 nM; in data set [2] (Hydrochloride), 818 nM; in the data set on OVCAR-3 ovarian cancer (setting [17]) it was 405 nM; in the data set with COLO 205 colon cancer (Hydrochloride), 352 nM; with HL-60 (TB) leukemia (Hydrochloride), 245 nM.

On to `COc1ccc(/C=C/c2cc(OC)c(OC)c(OC)c2)cc1O` [compound 1b, reference compound], for which the degraded at […] in data set [6] (four weeks) is approximately 10%. Further, the degraded at 336 h in [6] (two weeks) was approximately 3%.

With `COc1ccc(NCc2cc(OC)c(OC)c(OC)c2)cc1` [109c, 4-Methoxy-N-(3,4,5-trimethoxybenzyl)aniline], in the data set on tubulin [1] (setting [7]), the IC50 is 4600 nM. Further, the concentration for 50% growth inhibition (GI50) was determined as 266 nM in the data set on SF-295 CNS cancer; 458 nM in the data set with CAKI-1 renal cancer (setting [14]); 141 nM in [2]; 363 nM in the data set on OVCAR-3 ovarian cancer (setting [10]); 235 nM with COLO 205 colon cancer; 115 nM in the data set on HL-60 (TB) leukemia.

Regarding `COc1ccc(NCc2cc(OC)c(OC)c(OC)c2)cc1` [110c, 4-Methoxy-N-(3,4,5-trimethoxybenzyl)aniline Hydrochloride], the IC50 with tubulin [1] (setting [15]) and in the data set on tubulin [1] (setting [11]) was 8900 nM throughout. Moreover, the concentration for 50% growth inhibition (GI50) in the data set on M14 melanoma (setting [12]) worked out at 2380 nM; in the data set with SF-295 CNS cancer (Hydrochloride), 2320 nM; with CAKI-1 renal cancer (setting [18]), 2500 nM; in [2] (Hydrochloride), 534 nM; in the data set on OVCAR-3 ovarian cancer (setting [17]), 1960 nM; in the data set with COLO 205 colon cancer (Hydrochloride) it was 1660 nM. Besides, the 50% growth inhibitory concentration (GI50) in the data set with HL-60 (TB) leukemia (Hydrochloride) came to 834 nM.

As for `CCOc1ccc(NCc2cc(OC)c(OC)c(OC)c2)cc1` [110d, 4-Ethoxy-N-(3,4,5-trimethoxybenzyl)aniline Hydrochloride], the IC50 in the data set with tubulin [1] (setting [15]) and in the data set on tubulin [1] (setting [11]) was 11000 nM each time. In addition, the GI50 in the data set on M14 melanoma (setting [16]) came out at 532 nM; in the data set on SF-295 CNS cancer (Hydrochloride), 418 nM; in the data set on CAKI-1 renal cancer (setting [18]), 1050 nM; in data set [2] (Hydrochloride), 961 nM; with OVCAR-3 ovarian cancer (setting [17]), 464 nM; with COLO 205 colon cancer (Hydrochloride), 538 nM. In addition, in the data set on HL-60 (TB) leukemia (Hydrochloride), the concentration for 50% growth inhibition (GI50) is 448 nM.

For `COc1cc(CNc2ccc(SC)cc2)cc(OC)c1OC` [110e, 4-Methylthio-N-(3,4,5-trimethoxybenzyl)aniline Hydrochloride], the IC50 in the data set on tubulin [1] (setting [15]) and with tubulin [1] (setting [11]) was 16000 nM each time. Also, the GI50 was determined as 4840 nM in the data set on M14 melanoma (setting [16]); 3410 nM in the data set on SF-295 CNS cancer (Hydrochloride); 16300 nM with CAKI-1 renal cancer (setting [18]); 4910 nM in [2] (Hydrochloride); 4850 nM in the data set with OVCAR-3 ovarian cancer (setting [17]); 3600 nM with COLO 205 colon cancer (Hydrochloride). The 50% growth inhibitory concentration (GI50) in the data set with HL-60 (TB) leukemia (Hydrochloride) was 3290 nM.
